Series [1] in a line: clinical. The note with it: in vivo. The protocol: Pharmacokinetics: Serial blood, urine, and feces were collected at specified times following dosing.
All samples collected for radioactivity analysis were analyzed for total radioactivity.
Detailed reports of the bioanalytical methodologies and results accompany the clinical study report.
The other minor metabolite in plasma, p-Fluoroaniline, was analyzed by Exelixis using a validated LC/MS/MS method.
PK variables were computed using WinNonlin Professional, version 5.2.

The nature of series [2]: clinical. The following applies: in vivo. The protocol:
Samples for 2 subjects were used for the investigation study. Therefore, only 6 subjects' PK profiles were determined using a radio-quantitation method.
The source holds these as a separate data set.

Structures can show the parent of a compound that is named as a salt.

By Tmax is commonly meant the time from dosing to the highest level. `COc1cc2nccc(Oc3ccc(NC(=O)C4(C(=O)O)CC4)cc3)c2cc1OS(=O)(=O)O` [6-Demethyl Half-Dimer Sulfate]: in “clinical [1]” (human), the AUC0-24 is reported as 951 ± 377 (40) h · ng/mL, the AUC0-72 was 7530 ± 3200 (42) h · ng/mL and the AUC0-t is listed as 99500 ± 34500 (35) h · ng/mL. Further, in “clinical [2]” (human), the AUC0-24 is on record as 2520 ± 1370 h · ngEq/mL, the AUC0-72 was 17400 ± 7000 h · ngEq/mL, the AUC0-t was 89000 ± 32000 h · ngEq/mL and the time of peak concentration (Tmax) is around 71.99 h.
Turning to `COc1cc2nccc(Oc3ccc(NC(=O)C4(C(=O)O)CC4)cc3)c2cc1OC` [XL184-Half-Dimer], in “clinical [1]” (human), the AUC0-24 is given as 1080 ± 341 (32) h · ng/mL, the AUC0-72 was 3120 ± 976 (31) h · ng/mL, the AUC0-inf is on record as 6770 ± 1700 (25) h · ng/mL and the AUC0-t is recorded as 6540 ± 1680 (26) h · ng/mL. In “clinical [1]” (human), the t1/2 worked out at 91.8 h. In addition, the kel in the series “clinical [1]” is 0.00807 h⁻¹. In the series “clinical [2]” (human), this compound yielded an AUC0-24 of 3610 ± 1350 h · ngEq/mL, an AUC0-72 of 8680 ± 3980 h · ngEq/mL, an AUC0-inf of 16400 ± 1770 h · ngEq/mL and an AUC0-t of 11100 ± 5890 h · ngEq/mL. Also, in the series “clinical [2]” (human), the Cmax was found to be 210 ± 73 ngEq/mL, the time of peak concentration (Tmax) is 1.49 h and the t1/2 was determined as 57.9 ± 28.4 h. The same compound showed a ke1 in the series “clinical [2]” of 0.0136 ± 0.00672 h⁻¹.
Regarding `Nc1ccc(F)cc1` [p-Fluoroaniline, Para-fluoroaniline], in “clinical [1]” (male, human), the Plasma concentrations is below 2.0 ng/mL.
For `COc1cc2c(Oc3ccc(NC(=O)C4(C(=O)Nc5ccc(F)cc5)CC4)cc3)cc[n+]([O-])c2cc1OC` [XL184-N-Oxide], in the series “clinical [1]” (human), the AUC0-24 was 2030 ± 682 (34) h · ng/mL, the AUC0-72 was 5610 ± 1940 (35) h · ng/mL, the AUC0-inf is reported as 10300 ± 3170 (31) h · ng/mL and the AUC0-t was 10100 ± 3210 (32) h · ng/mL. The same compound showed a t1/2 in the series “clinical [1]” (human) of 89.2 h. The compound further returned a kel in “clinical [1]” of 0.00846 h⁻¹. In “clinical [2]” (human), this compound returned an AUC0-24 of 4300 ± 1460 h · ngEq/mL, an AUC0-72 of 10600 ± 3490 h · ngEq/mL, an AUC0-inf of 20800 ± 7640 h · ngEq/mL and an AUC0-t of 13300 ± 8360 h · ngEq/mL. In the series “clinical [2]” (human), this compound returned a t1/2 of 73.1 h. In addition, in “clinical [2]”, the ke1 stood at 0.00976 ± 0.00212 h⁻¹.
